{
  "source": "patent US20070275100A1",
  "about": "“Use of gaseous nitric oxide as an anti-cancer agent” (priority 1998, published 2007)",
  "key": {"A549": {"test_system": "A549", "assay": "MTS cell proliferation assay, 25,000 ppm gNO (Example 4), A549", "format": "cell-based, human", "description": "(§1) The purpose of this example is to illustrate the tumorcidal activity of high-dosage gNO. We examined the cellular sensitivity to 25,000 ppm of gNO on 5 non-small cell lung cancer (NSCLC) cells lines by an MTS cell proliferation assay.\n(§2) Human lung cancer cell lines A549, NCI-H23, NCI-H460, HTB-58, H2170, and H441 (commercially available from American Type Culture Collection (“ATCC”), Manassas, Va.) were maintained in culture medium recommended by ATCC. All media were supplemented with 1% penicillin/streptomycin and 10% fetal bovine serum (commercially available from Invitrogen Gibco-BRL, Burlington, Ontario, Canada). […]\n(§3) After 24 hours, the A549, NCI-H23, NCI-H460, HTB-58, H2170 and H441 cells were treated with 25,000 ppm gNO or air (control) for 1 minute, 3 minutes, 6 minutes, 9 minutes, 10 minutes, 20 minutes, and 30 minutes. Immediately following treatment, the viability of the cells was determined using a colorimetric MTS (3-(4,5-dimethylthiazol-2-yl)-5-(3-carboxymethoxyphenyl)-2-(4-sulfophenyl)-2H-tetrazolium, inner salt) cell proliferation assay (commercially available as the CellTiter 960 Aqueous One Solution Cell Proliferation Assay (MTS) from Promega, Madison, Wis., USA) according to the manufacturer's protocol. […] Absorbance was measured at 490 nm for each well using a micro-plate reader (commercially available from Dynex Technologies, Chantilly, Va., USA). […]"}, "NCI-H460": {"test_system": "NCI-H460", "assay": "MTS cell proliferation assay, 25,000 ppm gNO (Example 4), NCI-H460", "format": "cell-based, human", "description": "as §1, §2, §3"}, "[1]": {"test_system": "squamous lung cancer cells (H2170)", "assay": "Viability under 25,000 ppm gNO (Example 5), H2170", "format": "cell-based", "settings": "Homo sapiens, NCI-H2170, 0.1 h, after 6 minutes, FIG. 8 D", "experimental": "(§4) After 24 hours, the A549, NCI-H23, NCI-H460, HTB-58, H2170 and H441 cells were treated with 25,000 ppm gNO or air (control) for 1 minute, 3 minutes, 6 minutes, 9 minutes, 10 minutes, 20 minutes, and 30 minutes. Immediately following treatment, the viability of the cells was determined using a colorimetric MTS (3-(4,5-dimethylthiazol-2-yl)-5-(3-carboxymethoxyphenyl)-2-(4-sulfophenyl)-2H-tetrazolium, inner salt) cell proliferation assay (commercially available as the CellTiter 960 Aqueous One Solution Cell Proliferation Assay (MTS) from Promega, Madison, Wis., USA) according to the manufacturer's protocol. Briefly, […] of MTS solution was added to each well and the cells were incubated for 2 hours at 37° C. Absorbance was measured at 490 nm for each well using a micro-plate reader (commercially available from Dynex Technologies, Chantilly, Va., USA). The relative percentage of cell survival (viability) was calculated by dividing the absorbance of treated cells by that of control cells for each experimental time point.\n(§5) The purpose of this example is to illustrate the effects on normal human cell lines compared to the effects on cancerous cell lines of high-dosage gNO. The above study was repeated. […]"}, "[2]": {"test_system": "normal human endothelial lung vascular cells (NHVE)", "assay": "Viability under 25,000 ppm gNO (Example 5), NHVE", "format": "cell-based", "experimental": "as §4, §5"}, "[3]": {"test_system": "normal human bronchial epithelial cells (NHBE)", "assay": "Viability under 25,000 ppm gNO (Example 5), NHBE", "format": "cell-based", "settings": "after 6 minutes, FIG. 8 A", "experimental": "as §4, §5"}, "[4]": {"test_system": "bacteria that cause nosocomial pneumonia in the intensive care unit", "settings": "continuous in vitro exposure to 200 ppm gNO; cited from earlier work"}, "[5]": {"test_system": "A549-epithelial lung carcinoma cells", "assay": "MTS proliferation assay, A549 cells under continuous gNO exposure (Example 1)", "format": "cell-based, human", "settings": "for Corrected Average: blank subtracted; for survivability: 24 hours continuous exposure, compared to air (control)", "experimental": "(gNO) 200 ppm and 350 ppm compared to air (control) on the survival of a representative line of cancer cells. Cancer cell lines (A549-epithelial lung carcinoma cells and H460-epithelial metastatic; large cell lung cancer cells) were prepared in F12 medium and suspended in six 96-well plates (3 treatment and 3 controls). […] The plates then were removed and cell viability assessed by an MTS proliferation assay.\nWhen exposed to 350 ppm of gNO, however, cancer cell survival rates decrease dramatically."}, "[6]": {"test_system": "extra cellular M. tuberculosis", "assay": "Exposure of extracellular M. tuberculosis to NO", "format": "cell-based", "settings": "exogenous NO", "description": "Further, it may be inferred that the large population of extracellular bacilli in patients with cavitary pulmonary tuberculosis are also vulnerable to exogenous (inhaled) NO."}, "HTB-58": {"test_system": "HTB-58", "assay": "MTS cell proliferation assay, 25,000 ppm gNO (Example 4), HTB-58", "format": "cell-based, human", "description": "as §1, §2, §3"}, "[7]": {"settings": "200 ppm NO, 1 hour, F12 medium, listed as NO"}, "[8]": {"settings": "200 ppm NO, 1 hour, HBSS medium"}, "[9]": {"settings": "200 ppm NO, 2.5 hours, F12 medium"}, "[10]": {"settings": "200 ppm NO, 2.5 hours, F12 medium, listed as NO"}, "[11]": {"settings": "200 ppm NO, 2.5 hours, HBSS medium"}, "[12]": {"settings": "200 ppm NO, 3.5 hours, F12 medium"}, "[13]": {"settings": "200 ppm NO, 3.5 hours, F12 medium, listed as NO"}, "[14]": {"settings": "200 ppm NO, 3.5 hours, HBSS medium"}, "[15]": {"settings": "350 ppm NO, 2 hours, F12 medium"}, "[16]": {"settings": "350 ppm NO, 2 hours, F12 medium, listed as NO"}},
  "note": "Several values for one entry are separate records, joined by “and”; a condition that tells them apart may be missing. Equal values may be shown once.",
  "data": [
    {"smiles": "[N]=O", "note": "[gNO, nitric oxide]", "values": [
      {"measurement": "IC50 (exposure time)", "setting": "A549", "result": "about 3 minutes"},
      {"measurement": "IC50 (exposure time)", "setting": "NCI-H460", "result": "about 7 minutes"},
      {"measurement": "viability at 25000 ppm", "setting": "[1]", "result": "< 10", "unit": "%"},
      {"measurement": "killing of normal endothelial cells", "setting": "[2]; 6 minutes", "result": "rapidly killed"},
      {"measurement": "viability", "setting": "[2]; after 6 minutes, FIG. 8 B", "result": "less than 10%"},
      {"measurement": "viability", "setting": "[3]", "result": "less than 10%"},
      {"measurement": "time to cytocidal effect", "setting": "[4]", "result": "≤ 5", "unit": "h"},
      {"measurement": "Average", "setting": "[5]; 200 ppm NO, 1 hour, F12 medium", "result": 0.852},
      {"measurement": "Survival", "setting": "[5]; 200 ppm NO, 1 hour, F12 medium", "result": "up to 92%"},
      {"measurement": "Corrected Average", "setting": "[5]; 200 ppm NO, 1 hour, F12 medium", "result": 0.621},
      {"measurement": "MTS assay reading, individual wells", "setting": "[5]; [7]", "result": "0.842 and 0.955 and 0.793 and 0.818 and 0.828 and 0.78 and 0.805 and 0.936 and 0.959 and 0.91 and 0.827 and 0.8 and 0.795 and 0.759 and 0.945 and 0.886"},
      {"measurement": "Survival", "setting": "[5]; [7]", "result": 92, "unit": "%"},
      {"measurement": "Average", "setting": "[5]; [8]", "result": 0.06},
      {"measurement": "MTS assay reading, individual wells", "setting": "[5]; [8]", "result": "0.062 (2×) and 0.058 (2×) and 0.057 (2×) and 0.056 (2×) and 0.06 (3×) and 0.067 (2×) and 0.059 and 0.055"},
      {"measurement": "Survival", "setting": "[5]; [8]", "result": 0, "unit": "%"},
      {"measurement": "Corrected Average", "setting": "[5]; [8]", "result": 0},
      {"measurement": "Average", "setting": "[5]; [9]", "result": 1.276},
      {"measurement": "Survival", "setting": "[5]; [9]", "result": "up to 90%"},
      {"measurement": "Corrected Average", "setting": "[5]; [9]", "result": 0.918},
      {"measurement": "MTS assay reading, individual wells", "setting": "[5]; [10]", "result": "1.261 and 1.178 and 1.33 and 1.422 and 1.454 and 1.458 and 1.354 and 1.105 and 1.348 and 1.082 and 1.329 and 1.237 and 1.272 and 0.995 and 1.284 and 1.299"},
      {"measurement": "Survival", "setting": "[5]; [10]", "result": 90, "unit": "%"},
      {"measurement": "Average", "setting": "[5]; [11]", "result": 0.06},
      {"measurement": "MTS assay reading, individual wells", "setting": "[5]; [11]", "result": "0.063 and 0.059 (3×) and 0.058 (2×) and 0.061 and 0.06 (2×) and 0.069 (2×) and 0.057 (2×) and 0.056 and 0.062"},
      {"measurement": "Survival", "setting": "[5]; [11]", "result": 0, "unit": "%"},
      {"measurement": "Corrected Average", "setting": "[5]; [11]", "result": 0},
      {"measurement": "Average", "setting": "[5]; [12]", "result": 1.529},
      {"measurement": "Survival", "setting": "[5]; [12]", "result": "up to 87%"},
      {"measurement": "Corrected Average", "setting": "[5]; [12]", "result": 1.059},
      {"measurement": "MTS assay reading, individual wells", "setting": "[5]; [13]", "result": "1.587 and 1.525 and 1.665 and 1.444 and 1.642 and 1.332 and 1.639 and 1.551 and 1.567 and 1.863 and 1.335 and 1.325 and 1.575 and 1.227 and 1.561 and 1.625"},
      {"measurement": "Survival", "setting": "[5]; [13]", "result": 87, "unit": "%"},
      {"measurement": "Average", "setting": "[5]; [14]", "result": 0.061},
      {"measurement": "MTS assay reading, individual wells", "setting": "[5]; [14]", "result": "0.063 (2×) and 0.059 (3×) and 0.058 (3×) and 0.061 (2×) and 0.06 and 0.069 and 0.057 and 0.056 and 0.07"},
      {"measurement": "Survival", "setting": "[5]; [14]", "result": 0, "unit": "%"},
      {"measurement": "Corrected Average", "setting": "[5]; [14]", "result": 0},
      {"measurement": "survivability", "setting": "[5]; 200 ppm gNO", "result": "greater than 90%"},
      {"measurement": "Average", "setting": "[5]; [15]", "result": 0.110},
      {"measurement": "Survival", "setting": "[5]; [15]", "result": "about 2%"},
      {"measurement": "Corrected Average", "setting": "[5]; [15]", "result": 0.009},
      {"measurement": "MTS assay reading, individual wells", "setting": "[5]; [16]", "result": "0.104 and 0.115 and 0.106 (2×) and 0.110 and 0.116 and 0.119"},
      {"measurement": "Survival", "setting": "[5]; [16]", "result": 1, "unit": "%"},
      {"measurement": "survivability", "setting": "[5]; 350 ppm gNO", "result": 1, "unit": "%"},
      {"measurement": "mycobacteriocidal action", "setting": "[6]", "result": "powerful dose-dependent and time-dependent mycobacteriocidal action"},
      {"measurement": "IC50 (exposure time)", "setting": "HTB-58", "result": "about 7 minutes"}
    ]}
  ]
}
